Test results reported in paper PMC9994260, “Cryo-EM structure of the RADAR supramolecular anti-phage defense complex” (Cell, 2023).
Values joined by “and” are separate entries in the source; they are usually repeats but may differ in a detail not shown here. Equal entries are not always repeated.

Tests used:
E. coli RdrA (EcRdrA) = target: T1, E. coli RdrA (EcRdrA) (Escherichia coli, UniProt A0AAN0NNX5); test: malachite green phosphate release (NTPase); format: biochemical; conditions: 1 mM NTP, 5 μM RdrA, 2 h, pH 7.5, 10 mM MgCl2, 50 mM KCl, 1 mM TCEP
T1 construct: full-length, N-terminal 6xHis-SUMO2 tag removed by SENP2, expressed in E. coli BL21-RIL; heptamer, active site between neighbouring subunits; Walker A G81, K82, T83, Walker B D221, D222
T1 sequence (A0AAN0NNX5 1-947): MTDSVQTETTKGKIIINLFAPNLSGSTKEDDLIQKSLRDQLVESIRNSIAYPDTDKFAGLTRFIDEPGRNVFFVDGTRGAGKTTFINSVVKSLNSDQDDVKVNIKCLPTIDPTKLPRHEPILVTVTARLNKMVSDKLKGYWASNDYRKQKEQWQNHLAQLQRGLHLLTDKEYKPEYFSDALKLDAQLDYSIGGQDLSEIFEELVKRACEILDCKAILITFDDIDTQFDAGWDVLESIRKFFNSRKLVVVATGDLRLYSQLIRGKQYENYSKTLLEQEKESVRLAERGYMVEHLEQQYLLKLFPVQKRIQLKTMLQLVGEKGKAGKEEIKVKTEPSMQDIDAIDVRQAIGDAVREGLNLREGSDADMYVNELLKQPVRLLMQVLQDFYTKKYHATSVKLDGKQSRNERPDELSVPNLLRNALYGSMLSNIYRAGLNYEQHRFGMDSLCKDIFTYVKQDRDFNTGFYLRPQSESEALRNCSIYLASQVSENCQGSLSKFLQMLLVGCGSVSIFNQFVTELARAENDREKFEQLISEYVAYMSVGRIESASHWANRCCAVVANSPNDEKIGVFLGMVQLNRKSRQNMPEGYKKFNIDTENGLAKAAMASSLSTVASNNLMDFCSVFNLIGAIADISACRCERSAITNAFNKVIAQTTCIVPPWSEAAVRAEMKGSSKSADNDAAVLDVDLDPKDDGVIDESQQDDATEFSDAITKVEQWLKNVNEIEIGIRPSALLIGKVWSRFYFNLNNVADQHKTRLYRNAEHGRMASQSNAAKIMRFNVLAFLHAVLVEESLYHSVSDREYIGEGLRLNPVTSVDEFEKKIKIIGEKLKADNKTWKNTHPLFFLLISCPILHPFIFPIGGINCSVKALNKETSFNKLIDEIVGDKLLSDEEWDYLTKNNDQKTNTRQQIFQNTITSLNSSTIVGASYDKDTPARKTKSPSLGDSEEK

[1] = target: S. suis RdrA (RADAR system of Streptococcus suis SS993) (Streptococcus suis SS993); test: cryo-EM structure; purified S. suis RdrA alone; Talos Arctica 200 kV; single heptameric rings and double stacked rings picked
[2] = target: E. coli RdrA (RADAR system of E. coli P0304799.3) (E. coli P0304799.3); test: cryo-EM structure; purified E. coli RdrA alone, 2.40 mg/mL, vitrified at 4°C; Titan Krios 300 kV
E. coli RdrB (EcRdrB) [3] = target: T2, E. coli RdrB (EcRdrB) (Escherichia coli, UniProt A0AAN0NNX4); test: HPLC deamination assay (dATP to dITP) after phosphatase treatment; format: biochemical; conditions: 1 mM substrate, 1 μM RdrB, 30 min, 37 °C, pH 7.5, 10 mM MgCl2, 100 μM ZnSO4, 50 mM KCl, 1 mM TCEP
T2 construct: full-length, ~90 kDa, N-terminal 6xHis-SUMO2 tag removed by SENP2, expressed in E. coli BL21-RIL; dodecamer; Zn site H152, H154, H498, H530, catalytic E501
T2 sequence (A0AAN0NNX4 1-799): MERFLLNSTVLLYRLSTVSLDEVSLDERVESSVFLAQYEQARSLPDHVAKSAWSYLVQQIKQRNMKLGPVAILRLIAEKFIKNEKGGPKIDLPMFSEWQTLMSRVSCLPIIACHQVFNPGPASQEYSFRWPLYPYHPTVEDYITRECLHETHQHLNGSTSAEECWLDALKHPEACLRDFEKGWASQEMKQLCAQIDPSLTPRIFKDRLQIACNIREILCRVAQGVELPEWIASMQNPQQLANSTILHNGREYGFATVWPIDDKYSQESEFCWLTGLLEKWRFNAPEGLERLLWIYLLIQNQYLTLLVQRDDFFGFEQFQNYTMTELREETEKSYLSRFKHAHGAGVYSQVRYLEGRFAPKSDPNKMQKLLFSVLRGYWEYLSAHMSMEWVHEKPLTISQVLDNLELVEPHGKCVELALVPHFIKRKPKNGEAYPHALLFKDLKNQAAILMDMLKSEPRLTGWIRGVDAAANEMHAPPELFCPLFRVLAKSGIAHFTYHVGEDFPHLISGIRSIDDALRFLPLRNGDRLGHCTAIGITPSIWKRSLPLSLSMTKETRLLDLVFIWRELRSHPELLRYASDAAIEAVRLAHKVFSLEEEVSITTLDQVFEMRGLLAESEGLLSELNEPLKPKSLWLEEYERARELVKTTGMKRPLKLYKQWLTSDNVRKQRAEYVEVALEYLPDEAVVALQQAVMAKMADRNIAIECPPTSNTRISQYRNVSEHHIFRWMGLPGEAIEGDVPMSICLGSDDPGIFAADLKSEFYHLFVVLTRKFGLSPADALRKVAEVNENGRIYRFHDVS

E. coli RdrB (EcRdrB) [4] = target: T2, E. coli RdrB (EcRdrB); test: HPLC deamination assay (ATP to ITP) after phosphatase treatment; format: biochemical; conditions: 1 mM substrate, 1 μM RdrB, 30 min, 37 °C, pH 7.5, 10 mM MgCl2, 100 μM ZnSO4, 50 mM KCl, 1 mM TCEP
[5] = target: E. coli RdrB (RADAR system of E. coli P0304799.3) (E. coli P0304799.3); test: cryo-EM structure; purified E. coli RdrB alone, 2.35 mg/mL, vitrified at 4°C; Titan Krios 300 kV

Question: How did the “malachite green phosphate release (NTPase)” value (E. coli RdrA (EcRdrA); weak substrate) turn out when `O=c1[nH]cnc2c1ncn2[C@@H]1O[C@H](COP(=O)(O)OP(=O)(O)OP(=O)(O)O)[C@@H](O)[C@H]1O` [ITP] was run?
Answer: Compared with ATP, RdrA only weakly hydrolyzes ITP and GTP

Question: Which stoichiometry N [1] does the source give for “S. suis RdrA (RADAR system of Streptococcus suis SS993) (enzyme)” here?
Answer: 7 and 14

Question: For “E. coli RdrA (RADAR system of E. coli P0304799.3) (enzyme)”, which stoichiometry N [2] is on record?
Answer: 7

Question: `Nc1ncnc2c1ncn2[C@H]1C[C@H](O)[C@@H](COP(=O)(O)OP(=O)(O)OP(=O)(O)O)O1` [dATP] was tested. Which “HPLC deamination assay (dATP to dITP) after phosphatase treatment” value (E. coli RdrB (EcRdrB) [3]) did it give?
Answer: E. coli RdrB robustly deaminates both ATP and dATP substrates with equal efficiency

Question: Which “malachite green phosphate release (NTPase)” value (E. coli RdrA (EcRdrA)) does the source give for `Nc1ncnc2c1ncn2[C@@H]1O[C@H](COP(=O)(O)OP(=O)(O)OP(=O)(O)O)[C@@H](O)[C@H]1O` [ATP] here?
Answer: RdrA is an active ATPase in vitro that preferentially hydrolyzes ATP

Question: What about the “HPLC deamination assay (ATP to ITP) after phosphatase treatment” value (E. coli RdrB (EcRdrB) [4]) of the same compound?
Answer: E. coli RdrB robustly deaminates both ATP and dATP substrates with equal efficiency

Question: “E. coli RdrB (RADAR system of E. coli P0304799.3) (enzyme)” was tested. Which stoichiometry N [5] did it give?
Answer: 12
